Experimental data reported in patent EP0908457B1, “3-(1,2-benzisothiazol- and isoxazol-5-Y1)-2,4(1H,3H)-pyrimidinedione or thione and 3-(1,2-benzisothiazol- and isoxazol-5-y1)-4(3H)-pyrimidinone or thione herbicidal agents” (BASF AKTIENGESELLSCHAFT, priority 1997, dated 1999).

Experiments:
[1] = tested on: Echinochloa oryzoides (Ard.) Fritsch.; test: Preemergence weed control under flooded paddy conditions, ECHORC (Watergrass (Calif.)); type: in vivo; conditions: preemergence, flooded paddy; for herbicidal effect rating, ECHORC: meaning of each grade not given here
[2] = tested on: Cyperus iria; test: Preemergence weed control under flooded paddy conditions, CYPIR (Rice Flatsedge); type: in vivo; conditions: preemergence, flooded paddy; for herbicidal effect rating, CYPIR: meaning of each grade not given here
[3] = tested on: Cyperus serotinus, Rottb.; test: Preemergence weed control under flooded paddy conditions, CYPSE (Flatsedge); type: in vivo; conditions: preemergence; for herbicidal effect rating, CYPSE: meaning of each grade not given here
[4] = tested on: Monochoria vaginalis, Presl.; test: Preemergence weed control under flooded paddy conditions, MOOVA (Monochoria); type: in vivo; conditions: preemergence, flooded paddy; for herbicidal effect rating, MOOVA: meaning of each grade not given here
[5] = tested on: Sagittaria pygmaea, L.; test: Preemergence weed control under flooded paddy conditions, SAGPY (Arrowhead (Pygmaea)); type: in vivo; conditions: preemergence, flooded paddy; for herbicidal effect rating, SAGPY: meaning of each grade not given here
[6] = tested on: Oryza sativa, (L.) Tebonnet; test: Rice tolerance to post-transplant applications under flooded paddy conditions (Example 187), ORYSAT (Rice, Tebonnet); for herbicidal effect rating ORYSAT: meaning of each grade not given here
[7] = Rate 0.0320 kg/ha, rated three to four weeks after treatment
[8] = Rate 0.0620 kg/ha, rated three to four weeks after treatment
[9] = Rate 0.1250 kg/ha, rated three to four weeks after treatment
[10] = Rate 0.2500 kg/ha, rated three to four weeks after treatment
[11] = Rate 0.0320 kg/ha, rated 3-4 weeks after treatment
[12] = Rate 0.0620 kg/ha, rated 3-4 weeks after treatment
[13] = Rate 0.1250 kg/ha, rated 3-4 weeks after treatment
[14] = Rate 0.2500 kg/ha, rated 3-4 weeks after treatment
[15] = Rate 0.5000 kg/ha, rated 3-4 weeks after treatment
[16] = Rate 0.5000 kg/ha, rated three to four weeks after treatment

SMILES: Cc1ccc(OC(C)C(=O)NS(=O)(=O)C(C)C)c(-c2nsc3ccc(-n4c(=O)cc(C(F)(F)F)n(C)c4=O)cc23)c1 (centres unmarked) [Example 568, Propionamide, 2-{{2-{5-[3,6-dihydro-3-methyl-2,6-dioxo-4-(trifluoromethyl)-1(2H)-pyrimidinyl]-1,2-benzisothiazol-3-yl}-p-tolyl}oxy}-N-(isopropylsulfonyl)-]
- herbicidal effect rating, ECHORC [1, 7]: 0.0
- herbicidal effect rating, ECHORC [1, 8]: 3.0
- herbicidal effect rating, ECHORC [1, 9]: 5.0
- herbicidal effect rating, ECHORC [1, 10]: 6.0
- herbicidal effect rating, CYPIR [2, 7]: 0.0
- herbicidal effect rating, CYPIR [2, 8]: 0.0
- herbicidal effect rating, CYPIR [2, 9]: 5.0
- herbicidal effect rating, CYPIR [2, 10]: 7.0
- herbicidal effect rating, CYPSE [3, 7]: 0.0
- herbicidal effect rating, CYPSE [3, 8]: 0.0
- herbicidal effect rating, CYPSE [3, 9]: 0.0
- herbicidal effect rating, CYPSE [3, 10]: 0.0
- herbicidal effect rating, MOOVA [4, 7]: 0.0
- herbicidal effect rating, MOOVA [4, 8]: 9.0
- herbicidal effect rating, MOOVA [4, 9]: 9.0
- herbicidal effect rating, MOOVA [4, 10]: 9.0
- herbicidal effect rating, SAGPY [5, 7]: 0.0
- herbicidal effect rating, SAGPY [5, 8]: 0.0
- herbicidal effect rating, SAGPY [5, 9]: 0.0
- herbicidal effect rating, SAGPY [5, 10]: 0.0
- herbicidal effect rating ORYSAT [6, 7]: 0.0
- herbicidal effect rating ORYSAT [6, 8]: 0.0
- herbicidal effect rating ORYSAT [6, 9]: 1.0
- herbicidal effect rating ORYSAT [6, 10]: 3.0

SMILES: CNC(=O)COc1ccccc1-c1nsc2ccc(-n3c(=O)cc(C(F)(F)F)n(C)c3=O)cc12 [Example 562, Acetamide, 2-{o-{5-[3,6-dihydro-3-methyl-2,6-dioxo-4-(trifluoromethyl)-1(2H)-pyrimidinyl]-1,2-benzisothiazol-3-yl}phenoxy}-N-methyl-]
- herbicidal effect rating, ECHORC [1, 11]: 2.7
- herbicidal effect rating, ECHORC [1, 12]: 5.1
- herbicidal effect rating, ECHORC [1, 13]: 5.1
- herbicidal effect rating, ECHORC [1, 14]: 9.0
- herbicidal effect rating, ECHORC [1, 15]: 9.0
- herbicidal effect rating, CYPIR [2, 11]: 2.0
- herbicidal effect rating, CYPIR [2, 12]: 7.0
- herbicidal effect rating, CYPIR [2, 13]: 9.0
- herbicidal effect rating, CYPIR [2, 14]: 9.0
- herbicidal effect rating, CYPIR [2, 15]: 3.0
- herbicidal effect rating, CYPSE [3, 12]: 4.0
- herbicidal effect rating, CYPSE [3, 13]: 9.0
- herbicidal effect rating, CYPSE [3, 14]: 9.0
- herbicidal effect rating, CYPSE [3, 15]: 9.0
- herbicidal effect rating, MOOVA [4, 11]: 9.0
- herbicidal effect rating, MOOVA [4, 12]: 9.0
- herbicidal effect rating, MOOVA [4, 13]: 9.0
- herbicidal effect rating, MOOVA [4, 14]: 9.0
- herbicidal effect rating, MOOVA [4, 15]: 9.0
- herbicidal effect rating, SAGPY [5, 11]: 0.0
- herbicidal effect rating, SAGPY [5, 12]: 0.0
- herbicidal effect rating, SAGPY [5, 13]: 5.0
- herbicidal effect rating, SAGPY [5, 14]: 7.0
- herbicidal effect rating, SAGPY [5, 15]: 0.0
- herbicidal effect rating ORYSAT [6, 11]: 2.0
- herbicidal effect rating ORYSAT [6, 12]: 3.0
- herbicidal effect rating ORYSAT [6, 13]: 4.0
- herbicidal effect rating ORYSAT [6, 14]: 9.0
- herbicidal effect rating ORYSAT [6, 15]: 6.0

SMILES: COCCOC(=O)C(C)(C)Oc1ccc(C)cc1-c1nsc2ccc(-n3c(=O)cc(C(F)(F)F)n(C)c3=O)cc12 [Example 546, Propionic acid, 2-{{2-{5-[3,6-dihydro-3-methyl-2,6-dioxo-4-(trifluoromethyl)-1(2H)-pyrimidinyl]-1,2-benzisothiazol-3-yl}-p-tolyl}oxy}-2-methyl-, 2-methoxyethyl ester]
- herbicidal effect rating, ECHORC [1, 11]: 4.1
- herbicidal effect rating, ECHORC [1, 12]: 4.3
- herbicidal effect rating, ECHORC [1, 13]: 4.6
- herbicidal effect rating, ECHORC [1, 14]: 9.0
- herbicidal effect rating, ECHORC [1, 15]: 9.0
- herbicidal effect rating, CYPIR [2, 11]: 3.0
- herbicidal effect rating, CYPIR [2, 12]: 4.0
- herbicidal effect rating, CYPIR [2, 13]: 6.0
- herbicidal effect rating, CYPIR [2, 14]: 9.0
- herbicidal effect rating, CYPIR [2, 15]: 2.0
- herbicidal effect rating, CYPSE [3, 11]: 0.0
- herbicidal effect rating, CYPSE [3, 12]: 0.0
- herbicidal effect rating, CYPSE [3, 13]: 9.0
- herbicidal effect rating, CYPSE [3, 14]: 9.0
- herbicidal effect rating, CYPSE [3, 15]: 0.0
- herbicidal effect rating, MOOVA [4, 11]: 6.0
- herbicidal effect rating, MOOVA [4, 12]: 7.0
- herbicidal effect rating, MOOVA [4, 13]: 7.0
- herbicidal effect rating, MOOVA [4, 14]: 9.0
- herbicidal effect rating, MOOVA [4, 15]: 9.0
- herbicidal effect rating, SAGPY [5, 11]: 0.0
- herbicidal effect rating, SAGPY [5, 12]: 0.0
- herbicidal effect rating, SAGPY [5, 13]: 4.0
- herbicidal effect rating, SAGPY [5, 14]: 9.0
- herbicidal effect rating, SAGPY [5, 15]: 9.0
- herbicidal effect rating ORYSAT [6, 11]: 2.0
- herbicidal effect rating ORYSAT [6, 12]: 3.0
- herbicidal effect rating ORYSAT [6, 13]: 4.0
- herbicidal effect rating ORYSAT [6, 14]: 7.0
- herbicidal effect rating ORYSAT [6, 15]: 6.0

SMILES: CCCCCCC#CCCOC(=O)COc1ccc(C)cc1-c1nsc2ccc(-n3c(=O)cc(C(F)(F)F)n(C)c3=O)cc12 [Example 522, Acetic acid, {{2-{5-[3,6-dihydro-3-methyl-2,6-dioxo-4-(trifluoromethyl)-1(2H)-pyrimidinyl]-1,2-benzisothiazol-3-yl}-p-tolyl}oxy}-, 3-decynyl ester]
- herbicidal effect rating, ECHORC [1, 11]: 5.5
- herbicidal effect rating, ECHORC [1, 12]: 6.5
- herbicidal effect rating, ECHORC [1, 13]: 8.0
- herbicidal effect rating, ECHORC [1, 14]: 9.0
- herbicidal effect rating, CYPIR [2, 11]: 0.0
- herbicidal effect rating, CYPIR [2, 12]: 0.0
- herbicidal effect rating, CYPIR [2, 13]: 0.0
- herbicidal effect rating, CYPIR [2, 14]: 2.0
- herbicidal effect rating, CYPSE [3, 11]: 0.0
- herbicidal effect rating, CYPSE [3, 12]: 0.0
- herbicidal effect rating, CYPSE [3, 13]: 0.0
- herbicidal effect rating, CYPSE [3, 14]: 0.0
- herbicidal effect rating, MOOVA [4, 11]: 9.0
- herbicidal effect rating, MOOVA [4, 12]: 9.0
- herbicidal effect rating, MOOVA [4, 13]: 9.0
- herbicidal effect rating, MOOVA [4, 14]: 9.0
- herbicidal effect rating, SAGPY [5, 11]: 0.0
- herbicidal effect rating, SAGPY [5, 12]: 0.0
- herbicidal effect rating, SAGPY [5, 13]: 0.0
- herbicidal effect rating, SAGPY [5, 14]: 0.0
- herbicidal effect rating ORYSAT [6, 11]: 2.5
- herbicidal effect rating ORYSAT [6, 12]: 4.0
- herbicidal effect rating ORYSAT [6, 13]: 4.0
- herbicidal effect rating ORYSAT [6, 14]: 4.5

SMILES: Cc1ccc(OCC(=O)NS(=O)(=O)c2c(C)noc2C)c(-c2nsc3ccc(-n4c(=O)cc(C(F)(F)F)n(C)c4=O)cc23)c1 [Example 270, Acetamide, 2-{{2-{5-[3,6-dihydro-3-methyl-2,6-dioxo-4-(trifluoromethyl)-1(2H)-pyrimidinyl]-1,2-benzisothiazol-3-yl}-p-tolyl}oxy}-N-[(3,5-dimethylisoxazol-4-yl)sulfonyl]-]
- ECHORC herbicidal effect rating [1, 7]: 1.3
- ECHORC herbicidal effect rating [1, 8]: 2.7
- ECHORC herbicidal effect rating [1, 9]: 4.3
- ECHORC herbicidal effect rating [1, 10]: 9.0
- ECHORC herbicidal effect rating [1, 16]: 9.0
- CYPIR herbicidal effect rating [2, 7]: 8.0
- CYPIR herbicidal effect rating [2, 8]: 9.0
- CYPIR herbicidal effect rating [2, 9]: 9.0
- CYPIR herbicidal effect rating [2, 10]: 9.0
- CYPIR herbicidal effect rating [2, 16]: 9.0
- CYPSE herbicidal effect rating [3, 7]: 0.0
- CYPSE herbicidal effect rating [3, 8]: 0.0
- CYPSE herbicidal effect rating [3, 9]: 7.0
- CYPSE herbicidal effect rating [3, 10]: 9.0
- CYPSE herbicidal effect rating [3, 16]: 3.0
- MOOVA herbicidal effect rating [4, 7]: 9.0
- MOOVA herbicidal effect rating [4, 8]: 9.0
- MOOVA herbicidal effect rating [4, 9]: 9.0
- MOOVA herbicidal effect rating [4, 10]: 9.0
- MOOVA herbicidal effect rating [4, 16]: 9.0
- SAGPY herbicidal effect rating [5, 7]: 0.0
- SAGPY herbicidal effect rating [5, 8]: 0.0
- SAGPY herbicidal effect rating [5, 9]: 0.0
- SAGPY herbicidal effect rating [5, 10]: 0.0
- SAGPY herbicidal effect rating [5, 16]: 5.0
- ORYSAT herbicidal effect rating [6, 7]: 4.0
- ORYSAT herbicidal effect rating [6, 8]: 4.0
- ORYSAT herbicidal effect rating [6, 9]: 7.0
- ORYSAT herbicidal effect rating [6, 10]: 8.0
- ORYSAT herbicidal effect rating [6, 16]: 2.0
